Measurements reported in patent publication US6087373A, “Thrombin inhibitors” (Merck & Co., Inc., priority 1998, dated 2000).
Where a SMILES comes first, the peptide text is derived from it. [ ]: non-standard residue; d: D form. The star is where a group is joined. pNA = O=[N+]([O-])c1ccc(N*)cc1; Sar = CNCC(=O)O

Columns and labels:
human a-thrombin = target: T1, human a-thrombin (Homo sapiens, UniProt P00734); assay: In vitro assay for determining proteinase inhibition (human a-thrombin, hydrolysis of p-nitroanilide or fluorogenic substrate); type: biochemical; conditions: 25° C., 0.05 M TRIS buffer pH 7.4, 0.15 M NaCl, 0.1% PEG
T1 construct: human a-thrombin
Experimental: In vitro assay for determining proteinase inhibition
(§1) Assays of human a-thrombin and human trypsin were performed at 25° C. in 0.05 M TRIS buffer pH 7.4, 0.15 M NaCl, 0.1% PEG. Trypsin assays also contained 1 mM CaCl2.
Concentrations of stock solutions of Z-GPR-afc were determined from measurements of absorbance at 380 nm of the 7-amino-4-trifluoromethylcoumarin produced upon complete hydrolysis of an aliquot of the stock solution by thrombin.
Activity assays were performed by diluting a stock solution of substrate at least tenfold to a final concentration ≤0.5 Km into a solution containing enzyme or enzyme equilibrated with inhibitor. Times required to achieve equilibration between enzyme and inhibitor were determined in control experiments. Initial velocities of product formation in the absence (Vo) or presence of inhibitor (Vi) were measured. Assuming competitive inhibition, and that unity is negligible compared Km /[S], […] (where [S], [I], and e respectively represent the total concentrations, of substrate, inhibitor and enzyme), the equilibrium constant (Ki) for dissociation of the inhibitor from the enzyme can be obtained from the dependence of Vo /Vi on [I] shown in equation 1.

human trypsin = assay: Substrate hydrolysis by human trypsin (Km); type: biochemical; conditions: p-nitroanilide substrate, 405 nm, 25° C., pH 7.4, 1 mM CaCl2
Experimental: as §1

Row | Compound | Ki (human a-thrombin) [nM] | Km (human trypsin) [µM]
1 | Cc1nc(N)ccc1CNC(=O)Cn1c(C)cc2c(c1=O)NC(=O)CC2 | 350 | 
2 | Cc1nc(N)ccc1CNC(=O)Cn1c(C)cc2c(c1=O)NC(=O)C(Cc1cc(F)cc(F)c1)C2 (stereo not drawn) | 1.5 | 
3 | CC[C@H](C)CC1Cc2cc(C)n(CC(=O)NCc3ccc(N)nc3C)c(=O)c2NC1=O (stereo partly drawn) | 0.52 | 
4 | CNCC(=O)N1CCC[C@H]1C(=O)N[C@@H](CCCNC(=N)N)C(=O)Nc1ccc([N+](=O)[O-])cc1 [sar-PR-pna, sarcosine-Pro-Arg-p-nitroanilide] (H-[Sar]-Pro-Arg-pNA) |  | 59

More lines, main results first:

Row | Ki (human a-thrombin) [nM] | Compound | Km (human trypsin) [µM]
5 | 1.1 | Cc1nc(N)ccc1CNC(=O)Cn1c(C)cc2c(c1=O)NC(=O)C(Cc1cccc(F)c1)C2 (stereo not drawn) | 
6 | 0.64 | Cc1nc(N)ccc1CNC(=O)Cn1c(C)cc2c(c1=O)NC(=O)C(Cc1cc(F)ccc1F)C2 (stereo not drawn) | 
